Reference: US5948916A, “Arylthiadiazole derivative and antiviral agent containing the same” (priority 1994, dated 1999)
In brackets after ≈: the same amount, converted by molar mass. Like-named read-outs stand apart in the source and are kept apart here.

Assays:
HIV = test: Virucidal test against HIV (protection of HIV-infected MT-4 cells, MTT method); assay type: cell-based; conditions: for S.I. (selectivity index, ratio CC50/EC50): CC50/EC50, MT-4 cells; for EC50: Human immunodeficiency virus 1, MT4, 120 h, read-out: EC50 (compound concentration effective to protect 50% of the MT-4 cells from death by HIV)
Procedure: (§1) Virucidal test aqainst HIV:
(§2) In RPMI1640 culture medium containing 20 mM HEPES buffer solution, 10% bovine fetus serum, and 20 μg/mL gentamycin, 3×10^4 cells of MT-4 (which will be killed by infection with HIV) were infected with HIV at a rate of 0.02 HIV per cell. To the fractions of the culture, predetermined portions of a sample containing the thiadiazole derivative of the compound No. shown in Table 27 and 28 were added, and the culture fractions were incubated at 37° C. After incubation for 5 days, living cells were measured by the MTT method to derive the compound concentration (EC50) which is effective to protects 50% of the MT-4 cells from death by HIV. Separately, the MT-4 cells were incubated in the same manner without infection by HIV, and the compound concentration (CC50) which causes death of 50% of the MT-4 cells. The ratio of CC50 /EC50 is the selectivity index (S.I.).

[1] = Cytotoxicity in MT-4 cells incubated without infection by HIV; assay type: cell-based; conditions: human; MT-4 cells without infection by HIV, 37° C., 5 days, MTT method; read-out: CC50 (compound concentration which causes death of 50% of the MT-4 cells)
Procedure: as §1, §2

[2] = MT-4 cells, 0.02 HIV per cell, 37° C., 5 days, MTT method

Row | SMILES | S.I. (selectivity index, ratio CC50/EC50) (HIV) | EC50 (HIV) [µg/mL] | CC50 at 120 h [1] [µg/mL] | EC50 (HIV; [2]) [µg/mL]
1 | CN(C)C(=O)Oc1nsnc1-c1cc(N)ccc1Cl [Compound 21, N,N-Dimethyl [3-(5-amino-2-chlorophenyl)-1,2,5-thiadiazol-4-yl] CARBAMATE] | 240 | 0.15 (≈ 0.502 µM) | 36 (≈ 121 µM) | –
2 | CCCN(C)C(=O)Oc1nsnc1-c1cc(N)ccc1Cl [Compound 22, N-Methyl-N-propyl [3-(5-amino-2-chlorophenyl)-1,2,5-thiadiazol-4-yl] carbamate] | 1048 | 0.021 (≈ 0.0643 µM) | 22 (≈ 67.3 µM) | –
3 | CN(C)C(=O)Oc1nsnc1-c1c(Cl)ccc(N)c1Cl [Compound 70, N,N-dimethyl [3-(3-amino-2,6-dichlorophenyl)-1,2,5-thiadiazol-4-yl] carbamate] | 362 | 0.026 (≈ 0.078 µM) | 9.4 (≈ 28.2 µM) | –
4 | CCCN(C)C(=O)Oc1nsnc1-c1c(Cl)ccc(N)c1Cl [Compound 71, N-Methyl-N-propyl [3-(3-amino-2,6-dichlorophenyl)-1,2,5-thiadiazol-4-yl] carbamate] | 2350 | 0.002 (≈ 0.00554 µM) | 4.7 (≈ 13 µM) | –
5 | CCCN(C)C(=O)Oc1nsnc1-c1c(Cl)ccc(C#N)c1Cl [Compound 87, N-Methyl-N-propyl [3-(2,6-dichloro-3-cyanophenyl)-1,2,5-thiadiazol-4-yl] carbamate] | 7667 | 0.003 (≈ 0.00808 µM) | 23 (≈ 62 µM) | –
6 | CCCN(C)C(=O)Oc1nsnc1-c1c(Cl)ccc(C(=O)OC)c1Cl [Compound 91, N-Methyl-N-propyl [3-(2,6-dichloro-3-methoxycarbonylphenyl)-1,2,5-thiadiazol-4-yl] carbamate] | 144 | 0.063 (≈ 0.156 µM) | 9.1 (≈ 22.5 µM) | –
7 | CCCN(C)C(=O)Oc1nsnc1-c1c(Cl)ccc(C(N)=O)c1Cl [Compound 93, N-methyl-N-propyl [3-(3-carbamoyl-2,6-dichlorophenyl)-1,2,5-thiadiazol-4-yl] carbamate] | 59 | 1.1 (≈ 2.83 µM) | 65 (≈ 167 µM) | –
8 | CCCN(C)C(=O)Oc1nsnc1-c1c(F)ccc(N)c1Cl [Compound 99, N-Methyl-N-propyl [3-(3-amino-2-chloro-6-fluorophenyl)-1,2,5-thiadiazole-4-yl] carbamate] | 2750 | 0.008 (≈ 0.0232 µM) | 22 (≈ 63.8 µM) | –
9 | CN(C)C=Nc1nsnc1-c1c(Cl)cccc1Cl [Compound 127, N^1 -Dimethyl-N^2-[3-(2,6-dichlorophenyl)-1,2,5-thiadiazol-4-yl] formamidine] | 21 | – | 31 (≈ 103 µM) | 1.5 (≈ 4.98 µM)
10 | CCCN(C)C=Nc1nsnc1-c1c(Cl)cccc1Cl [Compound 128, N^1-methyl-N^1-propyl-N^2-[3-(2,6-dichlorophenyl)-1,2,5-thiadiazol-4-yl]formamidine] | 48 | – | 9.2 (≈ 27.9 µM) | 0.19 (≈ 0.577 µM)
11 | CCN(C=Nc1nsnc1-c1c(Cl)cccc1Cl)CC [Compound 130, N^1-diethyl-N^2 - [3-(2,6-dichlorophenyl)-1,2,5-thiadiazol-4-yl]formamidine] | 1000 | – | 14 (≈ 42.5 µM) | 0.014 (≈ 0.0425 µM)
12 | CCN(CC)C(C)=Nc1nsnc1-c1c(Cl)cccc1Cl [Compound 131, N^1-diethyl-N^2-[3-(2,6-dichlorophenyl)-1,2,5-thiadiazol-4-yl]acetamidine] | 19 | – | 5.4 (≈ 15.7 µM) | 0.29 (≈ 0.845 µM)
13 | CN(C)S(=O)(=O)Oc1nsnc1-c1c(Cl)cccc1Cl [Compound 138] | 9 | – | 9.9 (≈ 27.9 µM) | 1.1 (≈ 3.11 µM)
14 | Clc1cccc(Cl)c1-c1nsnc1OCc1ccccn1 [Compound 145] | 39 | – | 2.7 (≈ 7.98 µM) | 0.07 (≈ 0.207 µM)
15 | Clc1cccc(Cl)c1-c1nsnc1OCc1cccnc1 [Compound 146] | 6 | – | 1.9 (≈ 5.62 µM) | 0.3 (≈ 0.887 µM)
16 | O=[N+]([O-])c1ccccc1COc1nsnc1-c1c(Cl)cccc1Cl [Compound 149] | 5 | – | 8.6 (≈ 22.5 µM) | 1.7 (≈ 4.45 µM)
17 | CSCOc1nsnc1-c1c(Cl)cccc1Cl [Compound 155] | > 270 | – | > 100 | 0.37 (≈ 1.2 µM)
18 | COCOc1nsnc1-c1c(Cl)cccc1Cl [Compound 156] | 24 | – | 43 (≈ 148 µM) | 1.8 (≈ 6.18 µM)
19 | COCCOCOc1nsnc1-c1c(Cl)cccc1Cl [Compound 157] | 128 | – | 46 (≈ 137 µM) | 0.36 (≈ 1.07 µM)
20 | COCCOc1nsnc1-c1c(Cl)cccc1Cl [Compound 159] | 5 | – | 11 (≈ 36 µM) | 2.2 (≈ 7.21 µM)
21 | Clc1cccc(Cl)c1-c1nsnc1OCCBr [Compound 160, 3-(2-bromoethoxy)-4-(2,6-dichlorophenyl)-1,2,5-thiadiazole] | 15 | – | 4.8 (≈ 13.6 µM) | 0.32 (≈ 0.904 µM)
22 | CCCN(C)CCOc1nsnc1-c1c(Cl)cccc1Cl [Compound 161, 3-(2,6-dichlorophenyl)-4-[2-(N-methyl-N-propylamino)ethoxy]-1,2,5-thiadiazole] | 10 | – | 8.3 (≈ 24 µM) | 0.8 (≈ 2.31 µM)
23 | CCCN(C)C(=O)c1nsnc1-c1ccccc1Cl [Compound 195, N-methyl-N-propyl 4-(2-chlorophenyl)-1,2,5-thiadiazole-3-carboxamide] | 25 | – | 37 (≈ 125 µM) | 1.5 (≈ 5.07 µM)
24 | CCCN(C)C(=O)Cc1nsnc1-c1ccccc1Cl [Compound 202, N-methyl-N-propyl [3-(2-chlorophenyl)-1,2,5-thiadiazol-4-yl]acetamide] | 7 | – | 18 (≈ 58.1 µM) | 2.5 (≈ 8.07 µM)
25 | CN(CC#N)C(=O)Oc1nsnc1-c1c(Cl)cccc1Cl [Compound 218, N-(cyanomethyl)-N-methyl [3-(2,6-dichlorophenvl)-1,2,5-thiadiazol-4-yl] carbamate] | 168 | 0.38 (≈ 1.11 µM) | 64 (≈ 186 µM) | –
26 | CN(CCC#N)C(=O)Oc1nsnc1-c1c(Cl)cccc1Cl [Compound 219, N-(2-cyanoethyl)-N-methyl [3-(2,6-dichlorophenyli-1,2,5-thiadiazol-4-yl] carbamate] | 2556 | 0.018 (≈ 0.0504 µM) | 46 (≈ 129 µM) | –
27 | CN(CCO)C(=O)Oc1nsnc1-c1c(Cl)cccc1Cl [Compound 220, N-(2-Hydroxyethyl)-N-methyl [3-(2,6-dichlorophenyl)-1,2,5-thiadiazol-4-yl] carbamate] | 18 | 3.5 (≈ 10.1 µM) | 63 (≈ 181 µM) | –
28 | CN(CCCC(=O)O)C(=O)Oc1nsnc1-c1c(Cl)cccc1Cl [Compound 222, N-(3-carboxypropyl)-N-methyl [3-(2,6-dichlorophenyl)-1,2,5-thiadiazol-4-yl] carbamate] | > 71 | 1.4 (≈ 3.59 µM) | > 100 | –
29 | CN(CCC(N)=O)C(=O)Oc1nsnc1-c1c(Cl)cccc1Cl [Compound 223, N-(2-carbamoylethyl)-N-methyl [3-(2,6-dichlorophenyl)-1,2,5-thiadiazol-4-yl] carbamate] | > 38 | 2.6 (≈ 6.93 µM) | > 100 | –
30 | CCOC(=O)CCN(C)C(=O)Oc1nsnc1-c1c(Cl)cccc1Cl [Compound 224, N-[2-(ethoxycarbonyl)ethyl]-N-methyl [3-(2,6-dichlorophenyl)-1,2,5-thiadiazol-4-yl] carbamate] | 385 | 0.13 (≈ 0.322 µM) | 50 (≈ 124 µM) | –
